Test results: patent US20240181022A1, “AMURINS LYSINS, AND LYSIN-ANTIMICROBIAL PEPTIDE (AMP) CONSTRUCTS ACTIVE AGAINST GRAM-NEGATIVE BACTERIA” (priority 2021, published 2024)
≈ marks a conversion by molar mass, not a printed value. Where a SMILES comes first, the peptide text is derived from it. [ ]: non-standard residue; d: D form.

Key:
[1] = test system: M. smegmatis; experiment: MIC against M. smegmatis; type: cell-based, Mycobacterium smegmatis; details: M. smegmatis (MC 155); CAAT media
[2] = test system: M. fortuitum; experiment: MIC against M. fortuitum; type: cell-based, Mycobacterium fortuitum; details: M. fortuitum (ATCC 6841); CAAT media
[3] = test system: M. scrofulaceum; experiment: MIC against M. scrofulaceum; type: cell-based, Mycobacterium scrofulaceum; details: M. scrofulaceum (ATCC 19981); CAAT media
[4] = test system: M. intracellulare; experiment: MIC against M. intracellulare; type: cell-based, Mycobacterium intracellulare; details: M. intracellulare (ATCC 13950); CAAT media
[5] = test system: M. abscessus; experiment: MIC against MDR M. abscessus isolates; type: cell-based, Mycobacterium abscessus; details: 7 days; for MIC: AST media (CAAT)
[6] = test system: A. dolens; experiment: MIC by broth microdilution against A. dolens; type: cell-based, Achromobacter dolens; details: A. dolens isolates
Procedure: (§1) MIC values were determined using a modification of the standard broth microdilution reference method defined by the Clinical and Laboratory Standards Institute (CLSI), CLSL. 2015. Methods for Dilution Antimicrobial Susceptibility Tests for Bacteria That Grow Aerobically; Approved Standard-10th Edition. Clinical and Laboratory Standards Institute, Wayne, PA. The modification was based on the replacement of Mueller Hinton Broth with either CAA media (with and without NaCl) or CAA supplemented with 2.5% human serum. MIC is the minimum concentration of peptide sufficient to suppress at least 80% of the bacterial growth compared to control.
(§2) Based on these nine most prevalent strains, direct lytic agents, including GN370, AM1, AM2, and AM3, were evaluated against various isolates from each of the 9 strains. MICs and MBECs (Example 3) were determined, and a sputum inhibition test was conducted, as described below in Example 5.
(§3) The MICs for were determined as described below using the broth microdilution method for meropenem, GN370, AM1, AM2, and AM3. The results are shown below in Tables 8-12.

[7] = test system: B. cenocepacia; experiment: MIC by broth microdilution against B. cenocepacia; type: cell-based, Burkholderia cenocepacia; details: B. cenocepacia isolates
Procedure: as §1, §2, §3

[8] = test system: B. gladioli; experiment: MIC by broth microdilution against B. gladioli; type: cell-based, Burkholderia gladioli; details: B. gladioli isolates
Procedure: as §1, §2, §3

[9] = test system: P. apista; experiment: MIC by broth microdilution against P. apista; type: cell-based, Pandoraea apista; details: P. apista isolates
Procedure: as §1, §2, §3

[10] = test system: A. xylosoxidans
Procedure: (§4) Biofilms are then washed and treated with e.g., a 2-fold dilution series of the lysin in TSBg at e.g., 37° C. for 24 hours. After treatment, wells are washed, air-dried at e.g., 37° C. and stained with e.g., 0.05% crystal violet for 10 minutes.
(§5) The antibiofilm activity of GN370, AM1, AM2, and AM3 was evaluated against various Gram-negative bacteria prevalent in cystic fibrosis patients, including P. aeruginosa, S. maltophilia, and A. xylosoxidans.
(§6) The MBEC (after 2-hour treatments) was determined as described in Jones and Wozniak, PsI Produced by Mucoid Pseudomonas aeruginosa Contributes to the Establishment of Biofilms and Immune Evasion, Am. […] Microbiol.

[11] = test system: B. multivorans
Procedure: as §4, §5, §6

[12] = test system: S. maltophilia
Procedure: as §4, §5, §6

[13] = test system: P. aeruginosa; experiment: Time-kill assay in cystic fibrosis patient sputum, P. aeruginosa; type: cell-based, Pseudomonas aeruginosa
Text: Sputum from 5 cystic fibrosis patients was pooled. The resulting mixture was not filtered, as it was very dense and not amenable to sterilization by filtration. Sputum is known to be a complex mixture of DNA, carbohydrates, and lipids ([…], 2016). As used herein, the term “sputum” refers to the mucus present in the respiratory tract of an animal, such as a human. Sputum may increase in thickness due to the irritation or infection, including bacterial infection, and in some instances, may be expelled by the animal while coughing. In certain instances, cystic fibrosis may be characterized by the presence of a thick, sticky mucus or sputum present in the lungs of cystic fibrosis patients. The activity of GN370, AM1, AM2, AM3, and meropenem was determined in the sputum using a time-kill assay format as disclosed in Zhang et al., Antimicrobial peptide therapeutics for cystic fibrosis, Antimicrobial Agents Chemother. 2005; 49(7):2921-2927. […] Untreated controls were included in addition to pretreatment plating (t=0) for a baseline CFU determination. Activity was also determined in the absence of sputum for comparison to activity observed in the presence of sputum.

[14] = test system: P. aeruginosa; experiment: Serial passage resistance development study, P. aeruginosa; type: cell-based, Pseudomonas aeruginosa; details: P. aeruginosa strain CFS 1292, Day 28
[15] = test system: A. ruhlandii; type: cell-based, Achromobacter ruhlandii
Procedure: (§7) The MBEC (after 2-hour treatments) was determined as described in Jones and Wozniak, PsI Produced by Mucoid Pseudomonas aeruginosa Contributes to the Establishment of Biofilms and Immune Evasion, Am. Soc. Microbiol. 2017, 8(3):e00864-17. Meropenem and tobramycin were included as controls and were both poorly active, with MBEC90 values of >256 μg/mL (data not shown).

[16] = test system: A. dolens; type: cell-based, Achromobacter dolens
Procedure: as §7

SMILES: CC[C@H](C)[C@H](NC(=O)[C@@H](CCCNC(=N)N)NC(=O)[C@H](Cc1ccccc1)NC(=O)CNC(=O)CNC(=O)[C@@H](CCCNC(=N)N)NC(=O)[C@H](CCSC)NC(=O)[C@@H]1CCCN1C(=O)[C@@H](CCCNC(=N)N)NC(=O)[C@H](C)NC(=O)[C@@H](CCCNC(=N)N)NC(=O)[C@H](CC(C)C)NC(=O)[C@H](CC(N)=O)NC(=O)[C@@H](CCCNC(=N)N)NC(=O)[C@@H](CCCCN)NC(=O)[C@@H](CCCCN)NC(=O)[C@@H](NC(=O)[C@H](CC(N)=O)NC(=O)[C@@H](NC(=O)[C@H](C)NC(=O)CNC(=O)[C@@H](CCCNC(=N)N)NC(=O)[C@@H](NC(=O)[C@H](Cc1ccccc1)NC(=O)[C@@H](NC(=O)[C@@H](CCCCN)NC(=O)[C@@H](CCCNC(=N)N)NC(=O)[C@H](CO)NC(=O)[C@@H](CCCCN)NC(=O)[C@@H](CCCCN)NC(=O)[C@@H](CCCCN)NC(=O)[C@H](CO)NC(=O)[C@H](CC(C)C)NC(=O)[C@@H](CCCCN)NC(=O)[C@@H](CCCNC(=N)N)NC(=O)[C@@H](CCCNC(=N)N)NC(=O)[C@@H](CCCCN)NC(=O)[C@@H](N)CCSC)[C@@H](C)CC)[C@@H](C)O)C(C)C)C(C)C)C(=O)O [AM3] (H-M[dK][dR][dR][dK]LS[dK][dK][dK]S[dR][dK]IFT[dR]GAVNV[dK][dK][dR]NL[dR]A[dR]PM[dR]GGF[dR]I-OH; N-terminus and C-terminus assumed)
- MIC [1]: 1 µg/mL (≈ 0.219 µM)
- MIC [2]: 2 µg/mL (≈ 0.438 µM)
- MIC [3]: 2 µg/mL (≈ 0.438 µM)
- MIC [4]: 2 µg/mL (≈ 0.438 µM)
- activity (MIC) against M. abscessus ([5]; 5 clinical MDR strains and 1 ATCC strain, CAAT): highly active
- MIC ([5]; M. abscessus strain BK51402): 1 µg/mL (≈ 0.219 µM)
- MIC ([5]; M. abscessus strain BK51403 (ATCC 19977)): 4 µg/mL (≈ 0.875 µM)
- MIC ([5]; M. abscessus strain BK51408): 4 µg/mL (≈ 0.875 µM)
- MIC ([5]; M. abscessus strain BK55096): 2 µg/mL (≈ 0.438 µM)
- MIC ([5]; M. abscessus strain BK55691): 1 µg/mL (≈ 0.219 µM)
- MIC ([5]; M. abscessus strain BK58156): 1 µg/mL (≈ 0.219 µM)
- MIC50 [6]: 2 µg/mL (≈ 0.438 µM)
- MIC90 [6]: 8 µg/mL (≈ 1.75 µM)
- MIC Range ([6]; in µg/mL): 0.016-16
- MIC50 [7]: > 128 µg/mL
- MIC90 [7]: > 128 µg/mL
- MIC50 [8]: 32 µg/mL (≈ 7 µM)
- MIC90 [8]: 128 µg/mL (≈ 28 µM)
- MIC50 [9]: > 128 µg/mL
- MIC90 [9]: > 128 µg/mL
- MBEC50 [10]: 1 µg/mL
- MBEC90 [10]: 2 µg/mL
- MBEC Range [10]: 0.125 to 4 µg/mL
- antibiofilm activity (MBEC) against A. xylosoxidans ([10]; 2-hour treatments): primarily active
- MBEC50 [11]: 2 µg/mL
- MBEC90 [11]: 4 µg/mL
- MBEC Range [11]: 1 to 8 µg/mL
- MBEC50 [12]: 1 µg/mL
- MBEC90 [12]: 2 µg/mL
- MBEC Range [12]: 0.125 to 16 µg/mL
- effect of sputum on antibacterial activity ([13]; 10% CF sputum vs no sputum): not inhibited
- Log10 CFU/mL of sputum ([13]; absence of sputum, 1 hr): 2.3 Log10 CFU/mL of sputum
- Log10 CFU/mL of sputum ([13]; absence of sputum, 3 hr): 2.3 Log10 CFU/mL of sputum
- Log10 CFU/mL of sputum ([13]; absence of sputum, 24 hr): 2.3 Log10 CFU/mL of sputum
- Log10 CFU/mL of sputum ([13]; presence of 10% sputum, 1 hr): 2.3 Log10 CFU/mL of sputum
- Log10 CFU/mL of sputum ([13]; presence of 10% sputum, 3 hr): 2.3 Log10 CFU/mL of sputum
- Log10 CFU/mL of sputum ([13]; presence of 10% sputum, 24 hr): 2.3 Log10 CFU/mL of sputum
- killing by 1 hour, maintained by 24 hours ([13]; time-kill): complete killing
- change in MIC over serial passage [14]: no significant changes
- MBEC50 [15]: 16 µg/mL
- MBEC90 [15]: 16 µg/mL
- MBEC Range [15]: 1 to 32 µg/mL
- MBEC50 [16]: 2 µg/mL
- MBEC90 [16]: 16 µg/mL
- MBEC Range [16]: 1 to 32 µg/mL
